Data: EP0623592B1, “Peptide analogs as irreversible interleukin-1beta protease inhibitors” (VERTEX PHARMACEUTICALS INCORPORATED, priority 1993, dated 1994)

Target: T1, IL-1β protease (Homo sapiens, UniProt P29466)
T1 construct: Partially purified IL-1β protease is stored at -80°C
T1 sequence (P29466 120-297 limits assumed): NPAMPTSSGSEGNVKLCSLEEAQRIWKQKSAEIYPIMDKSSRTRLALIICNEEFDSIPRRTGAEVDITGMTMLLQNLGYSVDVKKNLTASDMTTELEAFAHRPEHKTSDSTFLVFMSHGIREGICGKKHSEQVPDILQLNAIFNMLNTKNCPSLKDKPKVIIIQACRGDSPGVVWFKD
T1 sequence (P29466 317-404 limits assumed): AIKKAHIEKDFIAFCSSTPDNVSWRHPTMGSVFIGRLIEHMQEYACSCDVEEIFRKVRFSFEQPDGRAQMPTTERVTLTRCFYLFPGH
Experiment: IL-1β protease inhibition assay (HPLC readout of TRITC-AYVHDAPVRS-NH2 substrate cleavage)
Assay type: biochemical
Conditions: partially purified IL-1β protease; 15 minutes preincubation with inhibitor at 37°C; substrate 67 µM; 60 minutes at 37°C
Procedure: Compounds of the present invention were tested for IL-1β protease inhibition activity according to the following protocol: Partially purified IL-1β protease is stored at -80°C, thawed on ice, and preincubated for 10 minutes at 37°C with 2.5 mM dithiothreitol in a buffer solution containing 10 mM Tris-HCI (pH 8.0) and 25% (v/w) glycerol. Inhibitors are prepared as stock solutions in dimethyl sulfoxide (DMSO). The protease is preincubated with inhibitor in a volume of 20 µl in a 1.5 ml polypropylene microcentrifuge tube for 15 minutes at 37°C. The volume of compound added to the assay is adjusted to yield a DMSO concentration in the preincubation of <15% (v/v). The enzyme assay is then initiated by the addition of substrate (TRITC-AYVHDAPVRS-NH2) to yield a final concentration of 67 µM in a final volume of 30 µl. The reactions are carried out for 60 minutes at 37°C in the dark and are terminated by the addition of 10 µl of 10% trifluoroacetic acid (TFA). Following the addition of 115 µl of 0.1% TFA, the samples are analyzed by high pressure liquid chromatography using a reverse phase (C18) column and elution with an acetonitrile/water/TFA gradient. Substrate and product are monitored by their absorbance at 550 nm and elute at 4.2 and 5.2 minutes, respectively.

| Structure (SMILES) | IC50 [nM] |
| --- | --- |
| COC(=O)N[C@@H](C)C(=O)N[C@@H](CC(=O)O)C(=O)COC(=O)c1c(Cl)cccc1Cl [Example 54, N-Methoxycarbonyl-L-alanine-L-aspartic acid 2,6-dichlorobenzoyloxymethyl ketone] | 60 |
| COC(=O)N[C@@H](Cc1ccccc1)C(=O)N[C@@H](CC(=O)O)C(=O)COC(=O)c1c(Cl)cccc1Cl [Example 57, N-Methoxycarbonyl-L-phenylalanine-L-aspartic acid 2,6-dichlorobenzoyloxymethyl ketone] | 70 |
| COC(=O)N[C@@H](CC(=O)O)C(=O)COC(=O)c1c(Cl)cccc1Cl [Example 67, N-Methoxycarbonyl-L-aspartic acid 2,6-dichlorobenzoyloxymethyl ketone] | 80 |

Second part, the molecule after the results:

| IC50 [nM] | Structure (SMILES) |
| --- | --- |
| 50 | O=C(O)C[C@H](NC(=O)OCc1ccccc1)C(=O)COC(=O)c1c(Cl)cccc1Cl [Example 38, N-Benzyloxycarbonyl-L-Aspartic Acid 2,6-Dichlorobenzoyloxymethyl Ketone] |
| 100 | O=C(O)C[C@H](NC(=O)OCc1ccccc1)C(=O)COC(=O)c1c(C(F)(F)F)cccc1C(F)(F)F [Example 40, N-Benzyloxycarbonyl-L-aspartic acid 2,6-ditrifluoromethyl benzoyloxymethyl ketone] |
| 100 | O=C(O)C[C@H](NC(=O)OCc1ccccc1)C(=O)COc1c(Cl)cccc1Cl [Example 41, N-Benzyloxycarbonyl-L-aspartic acid 2,6-dichlorophenoxymethylketone] |
